As a reminder, the IC50 is the point on the concentration scale where inhibition reaches its midpoint. One may read the inhibition as the share of the control response that was lost under treatment. In general, melting point refers to the temperature of the solid-liquid transition.

The values below come from paper PMC8462848, “Quinazolin-4(3H)-one based potential multiple tyrosine kinase inhibitors with excellent cytotoxicity” (Journal of Enzyme Inhibition and Medicinal Chemistry, 2021).

T3 sequence (P00533 25-1210): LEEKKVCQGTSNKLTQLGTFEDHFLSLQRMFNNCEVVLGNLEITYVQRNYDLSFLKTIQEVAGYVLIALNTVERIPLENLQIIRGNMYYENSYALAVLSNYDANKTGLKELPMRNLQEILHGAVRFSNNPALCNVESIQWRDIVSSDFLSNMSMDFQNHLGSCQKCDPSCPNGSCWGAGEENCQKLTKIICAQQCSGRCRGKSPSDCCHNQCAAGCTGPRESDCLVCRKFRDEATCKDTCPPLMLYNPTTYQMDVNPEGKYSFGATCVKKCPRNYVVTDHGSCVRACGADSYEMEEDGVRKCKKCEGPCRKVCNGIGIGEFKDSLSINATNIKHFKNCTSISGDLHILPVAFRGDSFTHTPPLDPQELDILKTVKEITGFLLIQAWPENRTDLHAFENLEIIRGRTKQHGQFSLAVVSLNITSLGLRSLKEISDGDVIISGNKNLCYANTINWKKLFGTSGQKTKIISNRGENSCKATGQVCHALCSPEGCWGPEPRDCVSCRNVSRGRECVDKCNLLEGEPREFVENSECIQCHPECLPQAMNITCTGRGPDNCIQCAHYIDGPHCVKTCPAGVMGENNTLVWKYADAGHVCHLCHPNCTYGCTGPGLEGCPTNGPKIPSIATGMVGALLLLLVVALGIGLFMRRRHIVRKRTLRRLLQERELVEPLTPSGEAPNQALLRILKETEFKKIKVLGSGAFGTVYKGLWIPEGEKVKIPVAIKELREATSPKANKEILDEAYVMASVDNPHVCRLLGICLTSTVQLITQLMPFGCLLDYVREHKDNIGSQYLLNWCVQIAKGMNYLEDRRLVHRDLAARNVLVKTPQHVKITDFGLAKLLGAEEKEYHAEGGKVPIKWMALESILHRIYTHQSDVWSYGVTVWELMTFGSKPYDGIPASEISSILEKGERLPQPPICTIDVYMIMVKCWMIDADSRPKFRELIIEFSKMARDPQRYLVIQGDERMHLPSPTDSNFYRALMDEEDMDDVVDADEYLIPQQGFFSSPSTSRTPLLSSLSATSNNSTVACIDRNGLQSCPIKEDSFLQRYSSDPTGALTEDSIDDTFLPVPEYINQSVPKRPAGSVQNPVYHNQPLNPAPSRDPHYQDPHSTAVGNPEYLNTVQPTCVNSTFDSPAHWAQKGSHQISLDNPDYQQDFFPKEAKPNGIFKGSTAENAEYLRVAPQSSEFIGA
T2 sequence (P04626 23-1255): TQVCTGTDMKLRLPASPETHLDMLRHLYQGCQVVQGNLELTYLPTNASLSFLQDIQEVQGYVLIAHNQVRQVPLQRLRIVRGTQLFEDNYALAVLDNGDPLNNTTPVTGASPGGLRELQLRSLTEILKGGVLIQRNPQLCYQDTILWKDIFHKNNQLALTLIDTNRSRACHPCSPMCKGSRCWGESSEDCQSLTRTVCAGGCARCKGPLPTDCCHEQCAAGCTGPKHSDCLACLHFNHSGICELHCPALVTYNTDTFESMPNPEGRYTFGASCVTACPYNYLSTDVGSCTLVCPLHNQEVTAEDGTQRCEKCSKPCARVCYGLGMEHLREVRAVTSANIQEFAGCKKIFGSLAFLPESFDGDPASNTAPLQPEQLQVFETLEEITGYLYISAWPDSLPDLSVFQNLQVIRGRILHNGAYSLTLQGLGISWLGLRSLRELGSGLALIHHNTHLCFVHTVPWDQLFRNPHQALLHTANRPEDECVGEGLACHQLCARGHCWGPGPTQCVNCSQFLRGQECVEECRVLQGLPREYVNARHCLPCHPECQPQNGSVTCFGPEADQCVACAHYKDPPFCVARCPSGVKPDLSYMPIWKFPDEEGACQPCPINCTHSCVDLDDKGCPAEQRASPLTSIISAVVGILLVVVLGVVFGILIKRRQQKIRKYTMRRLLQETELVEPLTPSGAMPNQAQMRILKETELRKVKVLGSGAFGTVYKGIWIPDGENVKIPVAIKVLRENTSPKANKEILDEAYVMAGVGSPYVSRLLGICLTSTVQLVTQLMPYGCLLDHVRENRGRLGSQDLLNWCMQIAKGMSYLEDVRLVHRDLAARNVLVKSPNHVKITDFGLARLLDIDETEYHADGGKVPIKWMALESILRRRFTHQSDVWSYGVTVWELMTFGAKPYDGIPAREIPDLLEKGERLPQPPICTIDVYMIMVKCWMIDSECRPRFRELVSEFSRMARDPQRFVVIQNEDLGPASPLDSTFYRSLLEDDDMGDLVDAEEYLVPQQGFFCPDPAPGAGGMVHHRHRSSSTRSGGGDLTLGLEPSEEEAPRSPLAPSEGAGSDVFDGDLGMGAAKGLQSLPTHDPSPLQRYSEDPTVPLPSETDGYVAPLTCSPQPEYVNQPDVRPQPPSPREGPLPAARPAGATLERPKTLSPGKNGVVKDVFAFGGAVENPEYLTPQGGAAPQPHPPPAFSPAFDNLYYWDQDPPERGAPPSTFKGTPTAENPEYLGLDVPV

One series concerns MCF7 (human breast adenocarcinoma) cells. Put plainly: MTT cytotoxicity assay, MCF7. Type of series: cell-based. As to conditions: Homo sapiens, MCF7, mean ± SD of triplicate. The protocol: (§1) The cytotoxicity of the synthesised quinazolin-4(3H)-ones was evaluated by MTT assay, as previously described. Two cancer cell lines, MCF7 (human breast adenocarcinoma) and A2780 (human ovary adenocarcinoma), were used in this study, which were obtained from the ATCC (Rockville, MD, USA). […] Additionally, compounds were prepared at the same medium to obtain serial dilutions (50, 25, […] and 0.1 µM). […] The media were aspirated, and the formazan crystals were solubilised by adding 150 µL DMSO. Absorbance was read on a multi-plate reader (BioRad) at […]. […] The data were obtained from triplicates and analysed using statistical software.
Background: Tetrazolium dyes change colour on reduction, which living cells bring about.
The compound `NNC(=O)CSc1nc2c(F)cc(F)cc2c(=O)n1-c1ccccc1` [3c, 2-((6,8-Difluoro-4-oxo-3-phenyl-3,4-dihydroquinazolin-2-yl)thio)acetohydrazide] returned an IC50 of 330 ± 30 nM.
Compound `COc1cc2nc(SCC(=O)NN)n(-c3ccccc3)c(=O)c2cc1OC` [3d, 2-((6,7-Dimethoxy-4-oxo-3-phenyl-3,4-dihydroquinazolin-2-yl)thio)acetohydrazide] displayed an IC50 of 500 ± 290 nM.
In turn, `COc1cc2nc(SCC(=O)NN)n(Cc3ccccc3)c(=O)c2cc1OC` [3i, 2-((3-Benzyl-6,7-dimethoxy-4-oxo-3,4-dihydroquinazolin-2-yl)thio)acetohydrazide] displayed an IC50 of 560 ± 310 nM.

A further series relates to A2780 (human ovary adenocarcinoma) cells. Briefly: MTT cytotoxicity assay, A2780. Type of series: cell-based. As to conditions: Homo sapiens, A2780, mean ± SD of triplicate. The protocol:
as §1
In turn, `NNC(=O)CSc1nc2c(F)cc(F)cc2c(=O)n1-c1ccccc1` [3c, 2-((6,8-Difluoro-4-oxo-3-phenyl-3,4-dihydroquinazolin-2-yl)thio)acetohydrazide] showed an IC50 of 1210 ± 10 nM.
Consider `COc1cc2nc(SCC(=O)NN)n(-c3ccccc3)c(=O)c2cc1OC` [3d, 2-((6,7-Dimethoxy-4-oxo-3-phenyl-3,4-dihydroquinazolin-2-yl)thio)acetohydrazide], for which the IC50 amounted to 770 ± 660 nM.
On the same count and under the same terms, as for `COc1cc2nc(SCC(=O)NN)n(Cc3ccccc3)c(=O)c2cc1OC` [3i, 2-((3-Benzyl-6,7-dimethoxy-4-oxo-3,4-dihydroquinazolin-2-yl)thio)acetohydrazide], the figure is 1360 ± 70 nM.

Another series deals with T1, CDK2/CyclinA2 (Homo sapiens, UniProt P24941).
T1 construct: purchased #79599
Put plainly: CDK2 Assay Kit, Kinase-Glo MAX luminescence. In kind it is biochemical. Particulars: 0.01 µM; one experimental data. The protocol: The CDK2 Assay Kit is designed to measure CDK2/CyclinA2 activity for screening and profiling applications, using Kinase-Glo® MAX as a detection reagent. The CDK2 Assay Kit comes in a convenient 96-well format, with enough purified recombinant CDK2/CyclinA2 enzyme, CDK substrate peptide, ATP and kinase assay buffer for 100 enzyme reactions. […] […] The compounds were diluted in 10% DMSO and 5 μl of the dilution was added to a 50 μl reaction so that the final concentration of DMSO was 1% in all of the reactions. All of the enzymatic reactions were conducted at 30 °C for 40 min. The 50 μl reaction mixture contained 40 mM Tris, pH 7.4, 10 mM MgCl2, 0.1 mg/mL BSA, 1 mM DTT, 10 mM ATP, Kinase substrate and the enzyme (CDK2/CyclinA2). After the enzymatic reaction, 50 μl of Kinase-Glo® MAX Luminescence kinase assay solution was added to each reaction and the plates were incubated for 5 min at room temperature. Luminescence signal was measured using a Bio Tek Synergy 2 microplate reader.
Figure S1. Calculation of the IC20 Values of Protein Kinase Enzyme CDK2 for 2f
* All the kinase IC20 (µM) were calculated according to the above equations.
(1 picture or pasted object on this page, not shown here)
A general note: Kinase-Glo measures the ATP left after a reaction by luminescence.
Consider `COc1cc2nc(SCC(=O)NN)n(Cc3ccccc3)c(=O)c2cc1OC` [3i, 2-((3-Benzyl-6,7-dimethoxy-4-oxo-3,4-dihydroquinazolin-2-yl)thio)acetohydrazide], for which the inhibition at 0.01 µM turned out to be 10.3%.

Still in this series, the particulars now being: 0.1 µM; one experimental data.
On to `COc1cc2nc(SCC(=O)NN)n(Cc3ccccc3)c(=O)c2cc1OC` [3i, 2-((3-Benzyl-6,7-dimethoxy-4-oxo-3,4-dihydroquinazolin-2-yl)thio)acetohydrazide], for which the inhibition at 0.1 µM came to 44.3%.

Still in this series, the particulars now being: 1 µM; one experimental data.
`COc1cc2nc(SCC(=O)NN)n(Cc3ccccc3)c(=O)c2cc1OC` [3i, 2-((3-Benzyl-6,7-dimethoxy-4-oxo-3,4-dihydroquinazolin-2-yl)thio)acetohydrazide]: the inhibition at 1 µM amounted to 72.1%.

The series is the same for the next values; noted with them: 10 µM; one experimental data.
Regarding `COc1cc2nc(SCC(=O)NN)n(Cc3ccccc3)c(=O)c2cc1OC` [3i, 2-((3-Benzyl-6,7-dimethoxy-4-oxo-3,4-dihydroquinazolin-2-yl)thio)acetohydrazide], the inhibition at 10 µM stood at 90.4%.

The next series concerns the target T2, HER2 (Homo sapiens, UniProt P04626).
T2 construct: purchased #40721
Put plainly: HER2 kinase assay kit, Kinase-Glo MAX luminescence. As to conditions: 0.01 µM; one experimental data. In kind it is biochemical. The procedure: (§2) The HER2/EGFR/VEGFR2 assay kit is designed to measure HER2/EGFR/VEGFR-2 inhibitory activity for screening and profiling applications, using Kinase-Glo® MAX as a detection reagent. The HER2/EGFR/VEGFR2 assay kit comes in a convenient 96-well format, with enough purified recombinant HER2/EGFR/VEGFR2 enzyme, HER2/EGFR/VEGFR2 substrate, ATP and kinase buffer 1 for 100 enzyme reactions. […] […] The quinazolin-4(3H)-ones were diluted in 10% DMSO and 5 μl of the dilution was added to a 50 μl reaction so that the final concentration of DMSO was 1% in all of the reactions. All of the enzymatic reactions were conducted at 30 °C for 40 min. The 50 μl reaction mixture contained 40 mM Tris, pH 7.4, 10 mM MgCl2, 0.1 mg/mL BSA, 1 mM DTT, 10 mM ATP, kinase substrate and the enzyme HER2 / EGFR / VEGFR2. After the enzymatic reaction, 50 μl of Kinase-Glo® MAX luminescence kinase assay solution was added to each reaction and the plates were incubated for 5 min at room temperature. Luminescence signal was measured using a Bio Tek Synergy 2 microplate reader (For detail enzyme assay protocol and the results, please see supplementary data).
For the compound `COc1cc2nc(SCC(=O)NN)n(Cc3ccccc3)c(=O)c2cc1OC` [3i, 2-((3-Benzyl-6,7-dimethoxy-4-oxo-3,4-dihydroquinazolin-2-yl)thio)acetohydrazide], the inhibition at 0.01 µM stood at 17.9%.

Still in this series, the particulars now being: 0.1 µM; one experimental data.
`COc1cc2nc(SCC(=O)NN)n(Cc3ccccc3)c(=O)c2cc1OC` [3i, 2-((3-Benzyl-6,7-dimethoxy-4-oxo-3,4-dihydroquinazolin-2-yl)thio)acetohydrazide]: the inhibition at 0.1 µM came to 20.3%.

The same series, now with this note: 1 µM; one experimental data.
On to `COc1cc2nc(SCC(=O)NN)n(Cc3ccccc3)c(=O)c2cc1OC` [3i, 2-((3-Benzyl-6,7-dimethoxy-4-oxo-3,4-dihydroquinazolin-2-yl)thio)acetohydrazide], for which the inhibition at 1 µM is 84.3%.

The series is the same for the next values; noted with them: 10 µM; one experimental data.
Regarding `COc1cc2nc(SCC(=O)NN)n(Cc3ccccc3)c(=O)c2cc1OC` [3i, 2-((3-Benzyl-6,7-dimethoxy-4-oxo-3,4-dihydroquinazolin-2-yl)thio)acetohydrazide], the inhibition at 10 µM was found to be 94.8%.

The same series, now with this note: mean ± SD of triplicate.
As for `COc1cc2nc(SCC(=O)NN)n(Cc3ccccc3)c(=O)c2cc1OC` [3i, 2-((3-Benzyl-6,7-dimethoxy-4-oxo-3,4-dihydroquinazolin-2-yl)thio)acetohydrazide], the IC50 came to 79 ± 15 nM.

A further series has as its target T3, EGFR (Homo sapiens, UniProt P00533).
T3 construct: purchased #40321
Put plainly: EGFR kinase assay kit, Kinase-Glo MAX luminescence. Particulars: 0.01 µM; one experimental data. Type of series: biochemical. The procedure:
as §2
As for `COc1cc2nc(SCC(=O)NN)n(Cc3ccccc3)c(=O)c2cc1OC` [3i, 2-((3-Benzyl-6,7-dimethoxy-4-oxo-3,4-dihydroquinazolin-2-yl)thio)acetohydrazide], the inhibition at 0.01 µM worked out at 3.38%.

The same series, now with this note: 0.1 µM; one experimental data.
As for `COc1cc2nc(SCC(=O)NN)n(Cc3ccccc3)c(=O)c2cc1OC` [3i, 2-((3-Benzyl-6,7-dimethoxy-4-oxo-3,4-dihydroquinazolin-2-yl)thio)acetohydrazide], the inhibition at 0.1 µM amounted to 41.2%.

The same series, now with this note: 1 µM; one experimental data.
As for `COc1cc2nc(SCC(=O)NN)n(Cc3ccccc3)c(=O)c2cc1OC` [3i, 2-((3-Benzyl-6,7-dimethoxy-4-oxo-3,4-dihydroquinazolin-2-yl)thio)acetohydrazide], the inhibition at 1 µM was 77.2%.

Staying with this series, now noted: 10 µM; one experimental data.
`COc1cc2nc(SCC(=O)NN)n(Cc3ccccc3)c(=O)c2cc1OC` [3i, 2-((3-Benzyl-6,7-dimethoxy-4-oxo-3,4-dihydroquinazolin-2-yl)thio)acetohydrazide]: the inhibition at 10 µM is 92.4%.

The series is the same for the next values; noted with them: mean ± SD of triplicate.
`COc1cc2nc(SCC(=O)NN)n(Cc3ccccc3)c(=O)c2cc1OC` [3i, 2-((3-Benzyl-6,7-dimethoxy-4-oxo-3,4-dihydroquinazolin-2-yl)thio)acetohydrazide]: the IC50 is 181 ± 11 nM.

A further series deals with T4, VEGFR2 (Homo sapiens, UniProt P35968).
T4 construct: purchased #40325
T4 sequence (P35968 20-1356): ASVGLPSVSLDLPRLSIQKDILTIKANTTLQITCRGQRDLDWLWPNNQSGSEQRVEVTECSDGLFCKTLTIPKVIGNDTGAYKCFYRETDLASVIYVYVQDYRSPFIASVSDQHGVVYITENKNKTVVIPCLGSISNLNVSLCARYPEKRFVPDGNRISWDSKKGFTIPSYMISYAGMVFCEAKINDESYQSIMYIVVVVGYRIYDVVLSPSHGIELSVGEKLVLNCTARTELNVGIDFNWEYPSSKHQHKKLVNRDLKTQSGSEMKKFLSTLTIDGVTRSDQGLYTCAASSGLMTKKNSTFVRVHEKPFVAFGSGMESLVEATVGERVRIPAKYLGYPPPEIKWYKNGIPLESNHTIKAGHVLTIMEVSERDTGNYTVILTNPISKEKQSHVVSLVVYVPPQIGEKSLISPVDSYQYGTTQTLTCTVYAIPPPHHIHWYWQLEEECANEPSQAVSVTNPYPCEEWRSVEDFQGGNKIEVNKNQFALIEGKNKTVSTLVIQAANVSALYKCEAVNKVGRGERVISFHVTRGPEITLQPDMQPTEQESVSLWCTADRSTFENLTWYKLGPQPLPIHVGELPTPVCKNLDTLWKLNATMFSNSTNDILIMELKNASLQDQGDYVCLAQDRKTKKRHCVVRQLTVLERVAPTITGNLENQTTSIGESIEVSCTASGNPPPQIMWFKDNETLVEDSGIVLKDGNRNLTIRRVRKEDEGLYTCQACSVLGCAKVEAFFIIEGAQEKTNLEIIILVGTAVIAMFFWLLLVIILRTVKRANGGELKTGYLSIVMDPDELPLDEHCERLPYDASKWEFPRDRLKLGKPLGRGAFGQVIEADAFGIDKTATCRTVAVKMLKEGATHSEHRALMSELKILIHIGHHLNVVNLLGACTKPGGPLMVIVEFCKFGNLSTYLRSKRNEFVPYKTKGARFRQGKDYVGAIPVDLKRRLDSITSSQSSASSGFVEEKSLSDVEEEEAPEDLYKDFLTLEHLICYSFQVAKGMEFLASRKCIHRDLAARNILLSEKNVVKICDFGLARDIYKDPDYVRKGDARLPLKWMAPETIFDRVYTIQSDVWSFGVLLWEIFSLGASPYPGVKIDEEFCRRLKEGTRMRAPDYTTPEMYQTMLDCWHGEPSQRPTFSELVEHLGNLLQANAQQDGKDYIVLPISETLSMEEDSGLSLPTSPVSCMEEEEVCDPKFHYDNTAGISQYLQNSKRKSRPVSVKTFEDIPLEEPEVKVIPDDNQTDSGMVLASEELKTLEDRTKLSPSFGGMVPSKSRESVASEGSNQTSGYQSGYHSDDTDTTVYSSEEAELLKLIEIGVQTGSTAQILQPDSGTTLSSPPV
Briefly: VEGFR2 kinase assay kit, Kinase-Glo MAX luminescence. In kind it is biochemical. As to conditions: 0.01 µM; one experimental data; read-out: % Inhibition VEGFR-2. The procedure: as §2
Take `COc1cc2nc(SCC(=O)NN)n(Cc3ccccc3)c(=O)c2cc1OC` [3i, 2-((3-Benzyl-6,7-dimethoxy-4-oxo-3,4-dihydroquinazolin-2-yl)thio)acetohydrazide]: the inhibition at 0.01 µM was determined as 10.2%.

Still in this series, the particulars now being: 0.1 µM; one experimental data; read-out: % Inhibition VEGFR-2.
On to `COc1cc2nc(SCC(=O)NN)n(Cc3ccccc3)c(=O)c2cc1OC` [3i, 2-((3-Benzyl-6,7-dimethoxy-4-oxo-3,4-dihydroquinazolin-2-yl)thio)acetohydrazide], for which the inhibition at 0.1 µM came out at 33.5%.

The series is the same for the next values; noted with them: 1 µM; one experimental data; read-out: % Inhibition VEGFR-2.
Take `COc1cc2nc(SCC(=O)NN)n(Cc3ccccc3)c(=O)c2cc1OC` [3i, 2-((3-Benzyl-6,7-dimethoxy-4-oxo-3,4-dihydroquinazolin-2-yl)thio)acetohydrazide]: the inhibition at 1 µM was 37.2%.

The series is the same for the next values; noted with them: 10 µM; one experimental data; read-out: % Inhibition VEGFR-2.
In the case of `COc1cc2nc(SCC(=O)NN)n(Cc3ccccc3)c(=O)c2cc1OC` [3i, 2-((3-Benzyl-6,7-dimethoxy-4-oxo-3,4-dihydroquinazolin-2-yl)thio)acetohydrazide], the inhibition at 10 µM came to 89.4%.

The same series, now with this note: mean ± SD of triplicate.
Regarding `COc1cc2nc(SCC(=O)NN)n(Cc3ccccc3)c(=O)c2cc1OC` [3i, 2-((3-Benzyl-6,7-dimethoxy-4-oxo-3,4-dihydroquinazolin-2-yl)thio)acetohydrazide], the IC50 was 257 ± 23 nM.

Tested on in the next series: not given
Test: not given
Details: not given
`NNC(=O)CSc1nc2c(F)cc(F)cc2c(=O)n1-c1ccccc1` [3c, 2-((6,8-Difluoro-4-oxo-3-phenyl-3,4-dihydroquinazolin-2-yl)thio)acetohydrazide] returned a melting point of 201 to 203 °C.
The compound `COc1cc2nc(SCC(=O)NN)n(-c3ccccc3)c(=O)c2cc1OC` [3d, 2-((6,7-Dimethoxy-4-oxo-3-phenyl-3,4-dihydroquinazolin-2-yl)thio)acetohydrazide] came in with a melting point of 166 to 168 °C.

A further series addresses T1, CDK2/CyclinA2. Put plainly: CDK2 Assay Kit, Kinase-Glo MAX luminescence. In kind it is biochemical. As to conditions: mean ± SD of triplicate.
In turn, `COc1cc2nc(SCC(=O)NN)n(Cc3ccccc3)c(=O)c2cc1OC` [3i, 2-((3-Benzyl-6,7-dimethoxy-4-oxo-3,4-dihydroquinazolin-2-yl)thio)acetohydrazide] gave an IC50 of 177 ± 32 nM.
